Data set [1] relates to papillary muscle of the guineapig. The data set can be described thus: Action potential duration on the papillary muscle of the guineapig. The format is cell-based. The following applies: test substance 2.2×10^−5 mol per liter, 30 minutes after the addition, repolarization degree of 95%; for APD95-HOE 234: action potential shortened by 1 μM potassium channel opener Hoe 234 (rilmakalim); for APD95-DEO: action potential shortened by 2-deoxyglucose (DEO). An excerpt: (1) Action potential duration on the papillary muscle of the guineapig:
ATP deficiency states such as are observed during ischemia in the cardiac muscle cell lead to a shortening of the duration of action potential. They are one of the causes of so-called reentry arrhythmias, which can cause sudden cardiac death. Opening of ATP-sensitive K channels by the reduction in ATP is a cause of this.
A standard microelectrode technique is used for measurement of the action potential. For this, guineapigs of both sexes are sacrificed by a blow to the head, the hearts are removed and the papillary muscles are separated out and suspended in an organ bath. The organ bath is flushed with Ringer solution (0.9% NaCl, 0.048% KCl, 0.024% CaCl2, 0.02% NaHCO3 and 0.1% glucose) and gassed with a mixture of 95% oxygen and 5% carbon dioxide at a temperature of 36° C. The muscle is stimulated via an electrode with rectangular pulses of 1 V and 1 ms duration and a frequency of 2 Hz. The action potential is conducted and recorded through a glass microelectrode, which is punctured intracellularly and filled with 3 mol KCl solution. The substances to be tested were added to the Ringer solution in a concentration of 2.2×10^−5 mol per liter. The action potential is shown in amplified form on an oscilloscope using a Hugo Sachs amplifier. The duration of the action potential is determined at a repolarization degree of 95% (APD95). Shortenings in action potential are caused either by addition of a 1 μM strength solution of the potassium channel opener Hoe 234 (rilmakalim) [W. Linz, E. Klaus, U. Albus, R. H. A. Becker, D. Mania, H. C. Englert, B. A. Schölkens Arzneimittelforechung/Drug Research, Volume 42 (II), 1992, pages 1180-1185] or by addition of 2-deoxyglucose (DEO). ATP deficiency states are caused in experimental physiology by 2-deoxyglucose by blockade of glucose meta-bolism. The action potential-shortening effect of these substances was prevented or reduced by the simultaneous dose of the test substances. The test substances were added to the bath solution as stock solutions in propanediol. The values stated relate to measurements 30 minutes after the addition. The APD95 in the presence of DEO or HOE 234 and in the absence of the test substance serves an a control.

The test system of a further data set is RINm5F cells. The data set can be described thus: Membrane potential on isolated β cells (RINm5F cells, whole cell patch clamp). The data set is classed as cell-based. The note with it: compound 10^−5 mol per liter, diazoxide (100 μmol) in bath, 34±1° C. An excerpt: (2) Membrane potential on isolated β cells:
The action mechanism of hypoglycemic sulfonylureas is clarified in rough outlines. The β cells of the pancreas are the target organ, where increased secretion of the hypoglycemic hormone insulin occurs. The release of insulin is controlled by the cell membrane potential. Glibenclamide causes depolarization of the cell membrane, which promotes insulin release via an increased in-flow of calcium ions. The extent of this depolarization of the call membrane ΔU was determined on RINm5F cells, a pancreas tumor cell line, for some of the compounds according to the invention. The action strength of a compound in this model predicts the extent of the hypoglycemic potential of this compound.
RINm5F cells were cultured at 37° C. in RPMI 1640 culture medium (flow), to which […] of glucose, 10% (volume/volume) of fetal calf serum, 2 mmol of glutamine and 50 μg/ml of gentamycin were added. For the studies, the cells were isolated by incubation (about 3 minutes) in a Ca^2+-free medium containing 0.25% of trypsin and stored on ice.
Isolated RINm5F cells were introduced into a Plexi-glas chamber on an inverse microscope fitted with a differential interference contrast lens. A fire-polished micropipette with an opening diameter of about 1 μm was placed on the cell with the aid of a micromanipulator under optical control (400-fold magnification). By applying a slight reduced pressure in the patch pipette, a high electrical seal was first produced between the glass and cell membrane, and was then broken open by increasing the reduced pressure of the membrane spot under the measurement pipette. The cell potential was recorded in this whole cell configuration with the aid of a patch clamp amplifier (L/M EPC 7) and was measured by applying a potential ramp to the whole cell current.
Solutions: The patch pipette was filled with KCl solution (in mmol): 140 KCl, 10 NaCl, 1.1 MgCl2, 0.5 EGTA, 1 Mg-ATP, 10 HEPES, pH=7.2, and the bath contained NaCl solution (in mmol): 140 NaCl, 4.7 KCl, 1.1 MgCl2, 2 CaCl2, 10 HEPES, pH=7.4. […]
In general terms: Patch clamp records ionic current or voltage across a cell membrane.

In general, melting point refers to the temperature, or range, at which the solid turns liquid.

`CCOc1ccc(CCNC(=O)c2cc(Cl)ccc2OC)cc1S(=O)(=O)NC(=O)NC`: the melting point lay within 190 to 195 °C.
Still for that read-out and setting: to `CCc1ccc(CCNC(=O)c2cc(Cl)ccc2OC)cc1S(=O)(=O)NC(=O)NC` belongs 207 °C; to `CNC(=O)NS(=O)(=O)c1cc(CCCNC(=O)c2cc(Cl)ccc2OC)ccc1OC`, 285 °C; to `CNC(=S)NS(=O)(=O)c1cc(CCNC(=O)c2cc(Cl)ccc2OC)ccc1C`, 183 °C.
Still for that read-out and setting: with `CNC(=O)NS(=O)(=O)c1cc(CCNC(=O)c2cc(F)ccc2OC)ccc1OC` the figure was 199 to 200 °C.
`CNC(=S)NS(=O)(=O)c1cc(CCNC(=O)c2cc(F)ccc2OC)ccc1OC` yielded a melting point of 182 to 185 °C.
In turn, `CCc1ccc(CCNC(=O)c2cc(Cl)ccc2OC)cc1S(=O)(=O)NC(=S)NC` returned a melting point of 155 °C.
Regarding `CNC(=O)NS(=O)(=O)c1cc(CCNC(=O)c2cc(Cl)ccc2OC)ccc1OC` [Example 1, 2-Methoxy-5-chloro-N-{5-[1-sulfonylamino-N-(methylaminocarbonyl)-2-methoxyphenyl]-ethyl}-benzamide], in data set [1], the “APD95-HOE 234” value is 138 ± 3 (160 ± 20) ms and the APD95-DEO was 107 ± 14 (155 ± 9) ms. Besides, the “ΔU (depolarization of the cell membrane)” value in the data set with RINm5F cells was 13 (−76) n = 6 mv.
Taken in the same sequence, the figures for `CNC(=O)NS(=O)(=O)c1cc(CCNC(=O)c2cc(Cl)ccc2OC)ccc1C` [Example 4, 2-Methoxy-5-chloro-N-{5-[1-sulfonylamino-N-(methylaminocarbonyl)-2-methylphenyl]-ethyl}-benzamide] were 123 ± 15 (172 ± 18) ms, 110 ± 23 (180 ± 5) ms and 19 (−76) n = 3 mv.
As for `CNC(=S)NS(=O)(=O)c1cc(CCNC(=O)c2cc(Cl)ccc2OC)ccc1OC` [Example 10, 2-Methoxy-5-chloro-N-{5-[1-sulfonylamino-N-(methylaminothiocarbonyl)-2-methoxyphenyl]-ethyl}-benzamide], in data set [1], the “APD95-HOE 234” value was 137 ± 20 (150 ± 23) ms and the APD95-DEO is 125 (175) ms. Further, in the data set on RINm5F cells, the “ΔU (depolarization of the cell membrane)” value was 11 (−79) n = 3 mv.

These data come from patent US6506937B2, “Substituted benzenesulfonylureas and -thioureas-processes for their preparation and their use as pharmaceuticals” (priority 1993, dated 2003).
